Patent US10913742B2, “Oxadiazolones as transient receptor potential channel inhibitors” (Genentech, Inc., priority 2017, dated 2021)

Molecular target: human TRPA1 (Homo sapiens (Human), UniProt O75762)
Assay: hTRPA1 CHO Ca2+ FLIPR assay (block of cinnamaldehyde induced calcium influx)
Type: cell-based
Settings: CHO cells expressing TRPA1; 75 uM cinnamaldehyde; Hill coefficient fixed to 1.5; read-out: hTRPA1 (hTRPA1 CHO Ca2+ MAX EVO (IC50))
Procedure: CHO cells expressing TRPA1 were plated into 384-well plates, incubated overnight at 37° C., and loaded with BD calcium indicator dye for 1 hr at 37° C. followed by 15 minutes at room temperature. The assay buffer was Hank's Balanced Salt Solution (HBSS) containing 20 mM HEPES (pH readjusted to 7.4) along with 0.02% BSA.
Following dye load and plate cool down, compounds were added to the cells using FLIPR Tetra. Plates were then incubated with compounds for 20 minutes at room temperature prior to adding agonist.
The IC50 results were fit with a standard Hill function, keeping the Hill coefficient (n) fixed to 1.5. Fixing the Hill coefficient will generally reduce variability of the IC50 determination. The IC50 results were individually examined to make sure the MIN and MAX points were set correctly prior to validation of the results.

human TRPA1, sequence (O75762 whole entry): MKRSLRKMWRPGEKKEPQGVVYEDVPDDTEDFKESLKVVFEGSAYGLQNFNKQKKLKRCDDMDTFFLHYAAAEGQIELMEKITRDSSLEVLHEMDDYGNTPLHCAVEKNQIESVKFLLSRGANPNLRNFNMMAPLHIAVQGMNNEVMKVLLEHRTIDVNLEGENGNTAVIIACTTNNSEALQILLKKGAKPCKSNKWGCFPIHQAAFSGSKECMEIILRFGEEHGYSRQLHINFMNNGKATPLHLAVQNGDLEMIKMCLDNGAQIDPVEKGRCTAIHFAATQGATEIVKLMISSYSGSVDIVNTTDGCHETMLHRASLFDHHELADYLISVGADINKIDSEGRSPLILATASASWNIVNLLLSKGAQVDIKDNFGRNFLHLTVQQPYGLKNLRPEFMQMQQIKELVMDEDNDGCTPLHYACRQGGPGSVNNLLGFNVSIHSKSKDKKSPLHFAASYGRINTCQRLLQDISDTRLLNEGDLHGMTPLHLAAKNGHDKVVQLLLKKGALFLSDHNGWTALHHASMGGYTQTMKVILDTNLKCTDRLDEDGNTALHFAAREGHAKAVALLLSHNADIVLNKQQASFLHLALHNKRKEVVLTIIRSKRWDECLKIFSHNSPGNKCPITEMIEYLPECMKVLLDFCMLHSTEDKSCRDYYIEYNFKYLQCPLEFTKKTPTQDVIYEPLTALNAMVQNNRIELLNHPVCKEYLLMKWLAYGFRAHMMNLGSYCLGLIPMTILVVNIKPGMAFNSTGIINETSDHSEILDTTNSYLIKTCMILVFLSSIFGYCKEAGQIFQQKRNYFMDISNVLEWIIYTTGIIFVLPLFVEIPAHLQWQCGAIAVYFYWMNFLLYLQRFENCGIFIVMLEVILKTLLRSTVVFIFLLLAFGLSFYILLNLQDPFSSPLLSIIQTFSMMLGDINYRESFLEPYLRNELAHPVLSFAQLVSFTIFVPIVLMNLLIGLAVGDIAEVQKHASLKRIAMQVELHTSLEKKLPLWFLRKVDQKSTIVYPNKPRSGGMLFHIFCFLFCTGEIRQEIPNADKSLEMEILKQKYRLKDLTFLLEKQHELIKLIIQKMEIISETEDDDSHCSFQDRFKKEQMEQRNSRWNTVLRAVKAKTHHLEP

**Q.** Which IC50 does the source give for `Cc1ccnc2ncn(Cc3nn([C@H]4C[C@](F)(c5cccc(F)c5)C4)c(=O)o3)c(=O)c12` [compound 75, 3-[3-fluoro-3-(3-fluorophenyl)cyclobutyl]-5-[(5-methyl-4-oxo-pyrido[2,3-d]pyrimidin-3-yl)methyl]-1,3,4-oxadiazol-2-one] here?
**A.** The IC50 was 40.5 nM.

**Q.** Which IC50 does the source give for `Cn1cnc2ncn(Cc3nn(C[C@@H](F)c4ccc(Br)cc4)c(=O)o3)c(=O)c21` [compound 45, (S)-3-(2-(4-bromophenyl)-2-fluoroethyl)-5-((7-methyl-6-oxo-6H-purin-1(7H)-yl)methyl)-1,3,4-oxadiazol-2(3H)-one] here?
**A.** Its IC50 is 1200 nM.

**Q.** Which IC50 does the source give for `Cn1cnc2ncn(Cc3nn([C@H]4C[C@H](c5ccc6ccccc6c5)C4)c(=O)o3)c(=O)c21` [compound 113, 5-[(7-methyl-6-oxo-purin-1-yl)methyl]-3-[3-(2-naphthyl)cyclobutyl]-1,3,4-oxadiazol-2-one] here?
**A.** The IC50 was 17.8 nM.

**Q.** With `Cn1cnc2ncn(Cc3nn([C@H]4C[C@H](c5ccc(C#N)cc5)C4)c(=O)o3)c(=O)c21` [compound 71, 4-[3-[5-[(7-methyl-6-oxo-purin-1-yl)methyl]-2-oxo-1,3,4-oxadiazol-3-yl]cyclobutyl]benzonitrile] as the compound, how does the IC50 read?
**A.** The IC50 was 59.7 nM.

**Q.** `O=c1c2cccnc2cnn1Cc1nn([C@H]2C[C@H](c3ccc(Cl)cc3)C2)c(=O)o1` [compound 90, 3-[3-(4-chlorophenyl)cyclobutyl]-5-[(5-oxopyrido[2,3-d]pyridazin-6-yl)methyl]-1,3,4-oxadiazol-2-one] was tested. Which IC50 did it give?
**A.** The IC50 was 79.9 nM.

**Q.** How did the IC50 turn out when `Cn1cnc2ncn(Cc3nn(C[C@@H]4CCc5ccc(Cl)cc54)c(=O)o3)c(=O)c21` [compound 48] was run?
**A.** Its IC50 is 196 nM.

**Q.** `Cn1cnc2ncn(Cc3nn([C@H]4C[C@H](c5ccccc5)C4)c(=O)o3)c(=O)c21` [compound 51, 5-[(7-methyl-6-oxo-purin-1-yl)methyl]-3-(3-phenylcyclobutyl)-1,3,4-oxadiazol-2-one] was tested. Which IC50 did it give?
**A.** The IC50 was 168 nM.

**Q.** With `Cn1cnc2ncn(Cc3nn(C[C@H](F)c4ccc(OC(F)F)cc4)c(=O)o3)c(=O)c21` (racemic) [compound 110, 5-[(7-methyl-6-oxo-purin-1-yl)methyl]-3-[rac-(2R)-2-[4-(difluoromethoxy)phenyl]-2-fluoro-ethyl]-1,3,4-oxadiazol-2-one] as the compound, how does the IC50 read?
**A.** The IC50 was 81.3 nM.

**Q.** How did the IC50 turn out when `Cn1cnc2ncn(Cc3nn([C@H]4C[C@H](c5ccc(Cl)c(F)c5)C4)c(=O)o3)c(=O)c21` [compound 106, 3-[3-(4-chloro-3-fluoro-phenyl)cyclobutyl]-5-[(7-methyl-6-oxo-purin-1-yl)methyl]-1,3,4-oxadiazol-2-one] was run?
**A.** The IC50 was 29.9 nM.

**Q.** With `Cc1nc(C)n2ncn(Cc3nn(CCc4ccc(Cl)cc4)c(=O)o3)c(=O)c12` [compound 13, 3-(4-chlorophenethyl)-5-((5,7-dimethyl-4-oxoimidazo[1,5-f][1,2,4]triazin-3(4H)-yl)methyl)-1,3,4-oxadiazol-2(3H)-one] as the compound, how does the IC50 read?
**A.** Its IC50 is 265 nM.

**Q.** `Cn1cnc2ncn(Cc3nn(CCc4ccc(Cl)cc4F)c(=O)o3)c(=O)c21` [compound 41, 3-(4-chloro-2-fluorophenethyl)-5-((7-methyl-6-oxo-6H-purin-1(7H)-yl)methyl)-1,3,4-oxadiazol-2(3H)-one] was tested. Which IC50 did it give?
**A.** Its IC50 is 492 nM.

**Q.** With `Cn1cnc2c(C#N)nn(Cc3nn(CCc4ccc(OC(F)F)cc4)c(=O)o3)c2c1=O` [compound 32, 1-[(4-[2-[4-(difluoromethoxy)phenyl]ethyl]-5-oxo-4,5-dihydro-1,3,4-oxadiazol-2-yl)methyl]-6-methyl-7-oxo-1H,6H,7H-pyrazolo[4,3-d]pyrimidine-3-carbonitrile] as the compound, how does the IC50 read?
**A.** The IC50 was 36 nM.

**Q.** Which IC50 does the source give for `O=c1c2cccnc2ncn1Cc1nn(C[C@H](F)c2ccc(Cl)cc2)c(=O)o1` (racemic) [compound 95, 5-[(4-oxopyrido[2,3-d]pyrimidin-3-yl)methyl]-3-[rac-(2R)-2-(4-chlorophenyl)-2-fluoro-ethyl]-1,3,4-oxadiazol-2-one] here?
**A.** The IC50 was 48.5 nM.

**Q.** `Cn1cnc2ncn(Cc3nn(CCc4ccc(OC(F)F)cc4)c(=O)o3)c(=O)c21` [compound 2, 3-(4-(difluoromethoxy)phenethyl)-5-((7-methyl-6-oxo-6H-purin-1(7H)-yl)methyl)-1,3,4-oxadiazol-2(3H)-one] was tested. Which IC50 did it give?
**A.** Its IC50 is 211 nM.

**Q.** With `Cc1cc(C#N)nc2ncn(Cc3nn([C@H]4C[C@](F)(c5ccc(F)cc5)C4)c(=O)o3)c(=O)c12` [compound 61, 3-[[4-[3-fluoro-3-(4-fluorophenyl)cyclobutyl]-5-oxo-1,3,4-oxadiazol-2-yl]methyl]-5-methyl-4-oxo-pyrido[2,3-d]pyrimidine-7-carbonitrile] as the compound, how does the IC50 read?
**A.** The IC50 was 11.2 nM.

**Q.** How did the IC50 turn out when `Cn1cnc2ncn(Cc3nn(CCc4ccc5ccccc5c4)c(=O)o3)c(=O)c21` [compound 12, 5-((7-methyl-6-oxo-6H-purin-1(7H)-yl)methyl)-3-(2-(naphthalen-2-yl)ethyl)-1,3,4-oxadiazol-2(3H)-one] was run?
**A.** The IC50 was 41 nM.

**Q.** With `Cn1cnc2ncn(Cc3nn(C[C@H](F)c4ccc(Br)cc4)c(=O)o3)c(=O)c21` [compound 44, (R)-3-(2-(4-bromophenyl)-2-fluoroethyl)-5-((7-methyl-6-oxo-6H-purin-1(7H)-yl)methyl)-1,3,4-oxadiazol-2(3H)-one] as the compound, how does the IC50 read?
**A.** The IC50 was 10 nM.

**Q.** With `Cc1ccnc2ncn(Cc3nn(CCCOc4cccc(Cl)c4)c(=O)o3)c(=O)c12` [compound 85, 3-(3-(3-chlorophenoxy)propyl)-5-((5-methyl-4-oxopyrido[2,3-d]pyrimidin-3(4H)-yl)methyl)-1,3,4-oxadiazol-2(3H)-one] as the compound, how does the IC50 read?
**A.** Its IC50 is 6.34 nM.

**Q.** Which IC50 does the source give for `Cn1cc(C#N)c2ncn(Cc3nn(CCc4ccc(Cl)cc4)c(=O)o3)c(=O)c21` [compound 56, 3-((4-(4-chlorophenethyl)-5-oxo-4,5-dihydro-1,3,4-oxadiazol-2-yl)methyl)-5-methyl-4-oxo-4,5-dihydro-3H-pyrrolo[3,2-d]pyrimidine-7-carbonitrile] here?
**A.** The IC50 was 168 nM.

**Q.** With `Cn1cnc2ncn(Cc3nn([C@H]4C[C@H](Oc5cccc(Cl)c5)C4)c(=O)o3)c(=O)c21` [compound 70, trans-3-[3-(3-chlorophenoxy)cyclobutyl]-5-[(7-methyl-6-oxo-purin-1-yl)methyl]-1,3,4-oxadiazol-2-one] as the compound, how does the IC50 read?
**A.** The IC50 was 17.7 nM.

**Q.** With `Cn1cnc2ncn(Cc3nn(CCc4ccc(C(F)F)cc4)c(=O)o3)c(=O)c21` [compound 18, 3-(4-(difluoromethyl)phenethyl)-5-((7-methyl-6-oxo-6H-purin-1(7H)-yl)methyl)-1,3,4-oxadiazol-2(3H)-one] as the compound, how does the IC50 read?
**A.** The IC50 was 509 nM.

**Q.** With `Cn1cnc2ncn(Cc3nn([C@H]4C[C@](F)(c5ccc(F)cc5)C4)c(=O)o3)c(=O)c21` [compound 97, 3-[3-fluoro-3-(4-fluorophenyl)cyclobutyl]-5-[(7-methyl-6-oxo-purin-1-yl)methyl]-1,3,4-oxadiazol-2-one] as the compound, how does the IC50 read?
**A.** The IC50 was 80.2 nM.

**Q.** For `Cn1c(=O)ccc2ncn(Cc3nn([C@H]4C[C@H](c5ccc(Cl)cc5)C4)c(=O)o3)c(=O)c21` [compound 83, 3-((4-((trans)-3-(4-chlorophenyl)cyclobutyl)-5-oxo-4,5-dihydro-1,3,4-oxadiazol-2-yl)methyl)-5-methylpyrido[3,2-d]pyrimidine-4,6(3H,5H)-dione], which IC50 is on record?
**A.** The IC50 was 15.2 nM.

**Q.** `Cn1cnc2ncn(Cc3nn(CCc4ccc(Cl)cc4)c(=O)o3)c2c1=O` [compound 26, 7-([4-[2-(4-chlorophenyl)ethyl]-5-oxo-4,5-dihydro-1,3,4-oxadiazol-2-yl]methyl)-1-methyl-6,7-dihydro-1H-purin-6-one] was tested. Which IC50 did it give?
**A.** The IC50 was 737 nM.

**Q.** For `Cc1ccnc2ncn(Cc3nn(CC(F)c4ccc(Cl)cc4)c(=O)o3)c(=O)c12` (stereo in doubt) [compound 33, 5-[(5-methyl-4-oxo-pyrido[2,3-d]pyrimidin-3-yl)methyl]-3-[(2R)-2-(4-chlorophenyl)-2-fluoro-ethyl]-1,3,4-oxadiazol-2-one], which IC50 is on record?
**A.** The IC50 was 180 nM.

**Q.** How did the IC50 turn out when `Cn1cnc2ncn(Cc3nn(CC(F)c4ccc5ccccc5c4)c(=O)o3)c(=O)c21` (stereo in doubt) [compound 38, 5-[(7-methyl-6-oxo-purin-1-yl)methyl]-3-[(2S)-2-fluoro-2-(2-naphthyl)ethyl]-1,3,4-oxadiazol-2-one] was run?
**A.** The IC50 was 7 nM.

**Q.** How did the IC50 turn out when `Cc1noc2ncn(Cc3nn([C@H]4C[C@H](c5ccc(Cl)cc5)C4)c(=O)o3)c(=O)c12` [compound 91, 5-[[4-[3-(4-chlorophenyl)cyclobutyl]-5-oxo-1,3,4-oxadiazol-2-yl]methyl]-3-methyl-isoxazolo[5,4-d]pyrimidin-4-one] was run?
**A.** The IC50 was 36.2 nM.

**Q.** `Cc1ccnc2ncn(Cc3nn(CCc4ccc(C#N)cc4)c(=O)o3)c(=O)c12` [compound 8, 4-[2-[5-[(5-methyl-4-oxo-pyrido[2,3-d]pyrimidin-3-yl)methyl]-2-oxo-1,3,4-oxadiazol-3-yl]ethyl]benzonitrile] was tested. Which IC50 did it give?
**A.** The IC50 was 166 nM.

**Q.** How did the IC50 turn out when `Cn1nnc2ncn(Cc3nn([C@H]4C[C@H](c5ccc(Cl)cc5)C4)c(=O)o3)c(=O)c21` [compound 64, trans-3-[3-(4-chlorophenyl)cyclobutyl]-5-[(1-methyl-7-oxo-triazolo[4,5-d]pyrimidin-6-yl)methyl]-1,3,4-oxadiazol-2-one] was run?
**A.** The IC50 was 76.9 nM.

**Q.** For `Cn1ccc2cc(CCn3nc(Cn4cnc5ncn(C)c5c4=O)oc3=O)ccc21` [compound 29, 3-[2-(1-methylindol-5-yl)ethyl]-5-[(7-methyl-6-oxo-purin-1-yl)methyl]-1,3,4-oxadiazol-2-one], which IC50 is on record?
**A.** Its IC50 is 87 nM.

**Q.** For `Cn1cnc2ncn(Cc3nn(CCc4ccc(Cl)c(-c5ccccc5)c4)c(=O)o3)c(=O)c21` [compound 42, 3-(2-(6-chlorobiphenyl-3-yl)ethyl)-5-((7-methyl-6-oxo-6H-purin-1(7H)-yl)methyl)-1,3,4-oxadiazol-2(3H)-one], which IC50 is on record?
**A.** Its IC50 is 98 nM.

**Q.** `Cc1ncnc2ncn(Cc3nn(CCc4ccc(Cl)cc4)c(=O)o3)c(=O)c12` [compound 46, 3-(4-chlorophenethyl)-5-((5-methyl-4-oxopyrimido[4,5-d]pyrimidin-3(4H)-yl)methyl)-1,3,4-oxadiazol-2(3H)-one] was tested. Which IC50 did it give?
**A.** Its IC50 is 107 nM.
